# Measured values taken from patent US10196345B2, “MAO-B selective inhibitor compounds, pharmaceutical compositions thereof and uses thereof” (The University of British Columbia, priority 2013, dated 2019).
# Where “and” joins values, the source holds several entries; their conditions need not be identical. Equal entries are not always repeated. Entries after “also recorded” stand apart in the source; their conditions may differ. Structures can show the parent of a compound that is named as a salt. Where two headings read alike, the source gives them in different places.
# Assays:
# [1] = tested on: IL-8 protein expression in Caco-2 cells; assay: IL-8 protein expression in LPS- and TNFα-treated Caco-2 cells; assay type: cell-based, human; settings: Caco-2, 1 μg/mL LPS or 50 ng/mL TNFα + 20 μM compound, 4, 12 or 24 h
# Experimental: Caco-2 cells were seeded at 83300 cells/cm^2 on a polystyrene 96-well plate in DMEM medium (#10313-021, Gibco™) containing 10% FBS. On day 5 after seeding, wells were replaced with fresh media containing 2.5% FBS. […] Supernatants of the treated cells were analyzed for pro- and anti-inflammatory cytokine proteins using the Human Proinflammatory 7-Plex Ultra-Sensitive Kit™ (K15008C, MSD™) measured by the Sector Imager 2400A (MSD™). Left panel: Absolute concentrations of IL-8 protein in supernatants of cells treated with control (media only), 1 μg/mL LPS or 50 ng/mL TNFα. […] Values were determined by subtracting supernatant cytokine concentrations of control from supernatant cytokine concentrations of treated cells. Results are expressed as mean±standard deviation (n=3).
# [2] = in vitro BBB permeability in MDCK-WT cells; settings: dog, MDCK
# Description: (§1) Wildtype Madin-Darby canine cells (MDCK-WT) were used to predict CNS permeability of compounds PS-RG0103, PS-RG0216, PS-RG0245 and PS-AD0191. […] J Allergy Clin Immunol. 1990; 86(6 pt 2): p. 1025-8.
# (§2) Novel MAO B inhibitors selected based on the above screening program will be screened using an in vitro model of blood brain barrier (BBB). Madin-Darby canine kidney (MDCK-WT) and MDCK cells transfected with the human MDR1 gene (MDCK-MDR1) are well established in vitro models used to predict a compound's ability to permeate the blood brain barrier (BBB). […] Apparent permeability (Papp), Efflux ratio (Papp B-A/Papp A-B), as well as the Net flux ratio (Efflux ratioMDCK-MDR1/Efflux ratioMDCK-WT) can be calculated to identify compound BBB permeability and identify compounds that are substrates of P-gp.
# [3] = stability assay in human liver microsomes; settings: after 60 minutes at room temperature
# recombinant human MAO-A = target: T1, recombinant human MAO-A (Homo sapiens, UniProt P21397); assay: Cell-free Fluorescent Monoamine Oxidase A&B Detection Assay, MAO-A; assay type: biochemical; settings: for IC50 MAO-A (μM): hydrochloride
# T1 sequence (P21397 1-527): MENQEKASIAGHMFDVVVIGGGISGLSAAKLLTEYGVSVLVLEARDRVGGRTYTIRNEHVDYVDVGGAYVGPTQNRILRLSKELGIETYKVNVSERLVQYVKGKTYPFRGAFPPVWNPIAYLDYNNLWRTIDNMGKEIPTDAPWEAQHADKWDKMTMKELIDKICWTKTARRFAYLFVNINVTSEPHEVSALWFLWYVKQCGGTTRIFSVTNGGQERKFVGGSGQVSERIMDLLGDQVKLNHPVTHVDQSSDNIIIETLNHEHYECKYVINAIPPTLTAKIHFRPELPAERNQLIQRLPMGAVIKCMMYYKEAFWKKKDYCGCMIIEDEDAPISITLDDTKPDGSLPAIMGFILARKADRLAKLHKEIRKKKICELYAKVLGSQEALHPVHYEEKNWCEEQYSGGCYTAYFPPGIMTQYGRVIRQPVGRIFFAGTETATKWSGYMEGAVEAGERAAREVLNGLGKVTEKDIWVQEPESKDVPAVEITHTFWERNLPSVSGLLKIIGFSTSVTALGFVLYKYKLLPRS
# Experimental: (§3) The assay was repeated to confirm data.
# (§4) MAO B specific inhibitory activity and selectivity over MAO A is assayed using a commercial kit [Fluoro MAO A and B detection kit (Cell Technology Inc™)]. This kit uses a non-fluorescent detection reagent to measure H2O2 released from the conversion of an MAO A and MAO B substrate specific to its aldehyde. Furthermore, H2O2 oxidizes the detection reagent in a 1:1 stoichiometry to produce a fluorescent product (resorufin). […] This information is then provided to the medicinal chemists to help direct synthesis of subsequent iterations.
# [4] = stability assay in mouse liver microsomes; settings: after 60 minutes at room temperature
# [5] = tested on: human intestinal microvascular endothelial cells (HIMEC); assay: IL-8, IL-6 and TNFα protein expression in LPS-treated HIMEC; assay type: cell-based; settings: 1000 ng/mL LPS + 10 μM compound, 1 or 3 hrs
# Experimental: Human microvascular endothelial cells were seeded at 37500 cells/cm^2 on a fibronectin-coated polystyrene 96-well plate in MCDB 131 medium (#10372-019, Gibco™) containing 20% FBS. On day 2 after seeding, wells were replaced with fresh media containing 2.5% FBS. […] Supernatants of the treated cells were analyzed for pro- and anti-inflammatory cytokine proteins using the Human Proinflammatory 7-Plex Ultra-Sensitive Kit (K15008C, MSD) measured by the Sector Imager 2400A (MSD). Left panel: Absolute concentrations of IL-8, IL-6 and TNFα protein in supernatants of cells treated with control (media only) or increasing concentrations of LPS. Right panel: Absolute IL-8, IL-6 or TNFα concentrations induced or attenuated by 1000 ng/mL LPS±the novel MAO B inhibitors. Values were determined by subtracting supernatant cytokine concentrations of control from supernatant cytokine concentrations of treated cells. Results are expressed as mean±standard deviation (n=3). Statistical significance was determined using a one-way ANOVA and Tukey post-hoc test in SPSS (IBM) comparing control and LPS (left panel) or LPS and novel MAO B inhibitors (right panel). *p<0.05, **p<0.001
# [6] = tested on: Porcine ligament epithelial (PLE) cells; assay: TEER, LPS-induced barrier loss, PLE cells; assay type: cell-based; settings: Transwell, LPS challenge at 72 hours
# Experimental: (§5) In each case, TEER was measured every 48 hours after treatment. Statistically significant differences were identified.
# (§6) Transepithelial Resistance (TER) is a common method to screen for barrier integrity. […] For select compounds barrier integrity and protection is also measured using tracer studies because TER accuracy in examining TJ integrity has recently come into question (Van Itallie et al., 2008). Fluorescein isothiocyanate conjugated 10 kD dextran (Invitrogen™) will be added to the apical Transwell™ compartment, fixed, and examined for dextran permeation (Umeda et al., 2006). We expect control and deprenyl-treated cells with an intact barrier to maintain the tracer at the apical membrane region, whereas the breached monolayers will show tracer permeation between the cells.
# [7] = mouse hepatocyte stability assay; settings: after 60 minutes at room temperature
# [8] = tested on: DSS induced colitis in C57BL/6 mice; assay: 3% DSS induced colitis, claudin-3 localization; assay type: in vivo; settings: 3% DSS in drinking water, day 7, C57BL/6 mice
# Description: FIGS. 21A and B show a 3% DSS induced colitis and protects epithelial cell-cell claudin-3 localization. […] (A). […] (B). […] Increased cell infiltrate is evident in the DSS-treated animals by the DAPI (blue) staining.
# [9] = tested on: rat intestinal epithelial (IEC-6) cells; assay: TEER, LPS-induced barrier loss, IEC-6 cells; assay type: cell-based; settings: Transwell, LPS challenge at 72 hours
# Experimental: as §5, §6
# C. rodentium infections = assay: seven-day C. rodentium infection model; assay type: in vivo
# [10] = tested on: Madin Darby canine kidney (MDCK-I) cells; assay: TEER in MDCK-I cells; assay type: cell-based; settings: for TEER, LPS+deprenyl vs control: MDCK-I cells, Transwell, LPS range, 40 μM deprenyl; for 144-hour barrier (TEER) vs control: MDCK-I, treated at 72 hours
# Experimental: In each case, TEER was measured every 48 hours after treatment.
# Transwell cultures were treated at 72 hours (T) post-cell plating.
# Transepithelial Resistance (TER) is a common method to screen for barrier integrity. […] Fluorescein isothiocyanate conjugated 10 kD dextran (Invitrogen™) will be added to the apical Transwell™ compartment, fixed, and examined for dextran permeation (Umeda et al., 2006).
# Amphiregulin (AR) is an EGFR binding ligand and may play a pivotal role in the previously described signaling axis (see FIGS. 15-17). […] (ii) GI [intestinal epithelial cell (IEC)] and (iii) classical [Madin-Darby canine kidney (MDCK-1)].
# recombinant human MAO-B = target: T2, recombinant human MAO-B (Homo sapiens, UniProt P27338); assay: Cell-free Fluorescent Monoamine Oxidase A&B Detection Assay, MAO-B; assay type: biochemical; settings: for IC50: read-out: IC50 MAO-B
# T2 sequence (P27338 1-520): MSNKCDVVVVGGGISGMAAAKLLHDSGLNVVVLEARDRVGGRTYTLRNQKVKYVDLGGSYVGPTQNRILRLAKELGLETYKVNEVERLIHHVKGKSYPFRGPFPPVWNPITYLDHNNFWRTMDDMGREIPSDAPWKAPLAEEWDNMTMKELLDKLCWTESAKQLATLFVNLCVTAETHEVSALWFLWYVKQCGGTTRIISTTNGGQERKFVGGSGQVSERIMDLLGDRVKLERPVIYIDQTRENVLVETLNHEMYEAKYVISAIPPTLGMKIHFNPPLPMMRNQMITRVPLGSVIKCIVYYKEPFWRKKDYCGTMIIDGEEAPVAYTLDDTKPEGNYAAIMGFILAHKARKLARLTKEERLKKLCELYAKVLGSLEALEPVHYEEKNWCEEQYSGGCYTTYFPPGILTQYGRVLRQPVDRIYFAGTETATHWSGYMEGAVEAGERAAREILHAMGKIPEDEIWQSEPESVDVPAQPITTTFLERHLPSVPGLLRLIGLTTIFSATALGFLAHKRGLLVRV
# Experimental: as §3, §4
# [11] = hepatocytes, 1 h
# [12] = tested on: Wildtype Madin-Darby canine cells (MDCK-WT); assay: in vitro BBB permeability in MDCK-WT cells; settings: MDCK-WT; one-way ANOVA, Dunnett's test
# Description: as §1, §2
# [13] = seven-day C. rodentium infection, preliminary
# [14] = cell-free, recombinant human MAO-A
Compound,IL-8 protein expression [1],Papp [2],compound remaining in human microsome [3],compound remaining in mouse microsome [4],IC50 MAO-A (μM) (recombinant human MAO-A; [14]),IC90 (recombinant human MAO-B),IC50 (recombinant human MAO-B),"compound remaining, mouse hepatocyte stability [11]",permeability compared with cetirizine [12],other results
C#CCN(C)[C@H](C)Cc1ccccc1 [Deprenyl],attenuation of IL-8 protein expression,44 ± 2.5 ×10⁻⁶ cm/s,15%,less than 2.5%,–,–,–,–,–,"IC90 (recombinant human MAO-A; read-out: IC90 MAO-A (μM)): 9.38 µM; IL-8, IL-6 and TNFα protein expression [5]: attenuation; TEER, LPS+deprenyl vs control [6]: rescues LPS reduction of TEER; TEER, LPS+deprenyl vs control ([6]; listed as deprenyl): significantly induced TEER above control; compound remaining, mouse hepatocyte stability [7]: less than 2.5%; claudin-3 localization [8]: better localized to epithelial cell-cell contacts; TEER, LPS+deprenyl vs control [9]: rescues LPS reduction of TEER; TEER, LPS+deprenyl vs control ([9]; listed as deprenyl): significantly induced TEER above control; bacterial growth rates (C. rodentium infections; C. rodentium): did not influence bacterial growth rates; TJ protein localization at the cell periphery (C. rodentium infections; [13]): intact; hyperplastic phenotype (C. rodentium infections; [13]): not apparent; TEER, LPS+deprenyl vs control [10]: rescues LPS reduction of TEER; TEER, LPS+deprenyl vs control ([10]; listed as deprenyl): significantly induced TEER above control; TEER, co-treatment with H2O2 ([10]; MDCK-I on Transwell membranes, H2O2): increased TEER significantly above the control; 144-hour barrier (TEER) vs control ([10]; 5 μm inhibitor): increased over control; 144-hour barrier (TEER) vs control ([10]; 40 μm inhibitor): increased over control; effect on TEER (MAO A, B, AB inhibitors) ([10]; no concentration given): increased TEER"
"C[C@H](Cc1ccc(OCc2cccc(Cl)c2)cc1)N(C)CC(=O)O [PS-RG0103, N—((R)-(1-(4-(3-chlorobenzyloxy)phenyl)propan-2-yl)(methyl))glycine hydrochloride]",–,2.2 ± 0.2 ×10⁻⁶ cm/s,93%,69%,no activity on MAO-A; also recorded: Does not,2.27 µM,0.27 µM and 0.275 µM,101%,–,–
"C[C@H](Cc1ccc(OCc2ccc(Br)c(Cl)c2)cc1)N(C)CC(=O)O.Cl [PS-RG0216, (R)—N-(1-(4-((4-bromo-3-chlorobenzyl)oxy)phenyl)propan-2-yl)-N-methylglycine hydrochloride]",attenuation of IL-8 protein expression,1.2 ± 0.1 ×10⁻⁶ cm/s,91%,74%,no activity on MAO-A; also recorded: Does not,1.02 µM,0.2 µM and 0.203 µM,100%,not different from cetirizine,–
"C[C@H](Cc1ccc(OCc2ccc(Cl)c(Cl)c2)cc1)N(C)CC(=O)O.Cl [PS-RG0245, (R)—N-(1-(4-((3,4-dichlorobenzyl)oxy)phenyl)propan-2-yl)-N-methylglycine hydrochloride]",–,3.6 ± 0.2 ×10⁻⁶ cm/s,–,–,–,0.873 µM,0.21 µM and 0.207 µM,–,not different from cetirizine,"IC50 (recombinant human MAO-A; cell-free, recombinant human MAO-A, read-out: IC50 MAO-A): 17.2 µM and 17.1 µM; IC90 (recombinant human MAO-A; cell-free, recombinant human MAO-A, read-out: IC90 MAO-A): 99.8 µM"
